Reference: patent US20250002455A1, “NEW N-PHENYLPYRROLAMIDE INHIBITORS OF DNA GYRASE AND TOPOISOMERASE IV WITH ANTIBACTERIAL ACTIVITY” (priority 2020, published 2025)
Converted amounts (≈) assume the structure as drawn. Like-named read-outs stand apart in the source and are kept apart here.

How the values were obtained:
[1] = test system: A. baumannii (ATCC 19606); assay: Microbroth dilution MIC (CLSI); assay type: cell-based; conditions: Acinetobacter baumannii, ATCC19606
Summary of the method: (§1)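 Two-fold dilution series prepared in 100% DMSO and tested by broth microdilution following CLSI M07-A8 or, for anaerobes, M11-A8. MIC taken as the lowest concentration without visible growth.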

S. aureus ATCC 29213 = assay: Microbroth dilution MIC (CLSI); assay type: cell-based; conditions: Staphylococcus aureus, ATCC29213
Summary of the method: as §1

E. coli ATCC 25922 = assay: Microbroth dilution MIC (CLSI); assay type: cell-based; conditions: Escherichia coli, ATCC25922
Summary of the method: as §1

A. baumannii ATCC 17978 = assay: Microbroth dilution MIC (CLSI); assay type: cell-based; conditions: Acinetobacter baumannii, ATCC17978; A. baumannii ATCC 17978; read-out: MIC
Summary of the method: as §1

[2] = test system: S. aureus ATCC 43300 (MRSA); assay: Microbroth dilution MIC (CLSI); assay type: cell-based; conditions: Staphylococcus aureus; S. aureus ATCC 43300 (MRSA); read-out: MIC
Summary of the method: as §1

E. faecium (ATCC 35667) = assay: Microbroth dilution MIC (CLSI); assay type: cell-based; conditions: Enterococcus faecium, ATCC35667
Summary of the method: as §1

[3] = test system: K. pneumoniae (ATCC 700603); assay: Microbroth dilution MIC (CLSI); assay type: cell-based; conditions: Klebsiella pneumoniae, ATCC700603
Summary of the method: as §1

E. faecium ATCC 700221 = assay: Microbroth dilution MIC (CLSI); assay type: cell-based; conditions: Enterococcus faecium, ATCC700221; E. faecium ATCC 700221; read-out: MIC
Summary of the method: as §1

K. pneumoniae ATCC 10031 = assay: Microbroth dilution MIC (CLSI); assay type: cell-based; conditions: Klebsiella pneumoniae, ATCC10031; K. pneumoniae ATCC 10031; read-out: MIC
Summary of the method: as §1

P. aeruginosa ATCC 27853 = assay: Microbroth dilution MIC (CLSI); assay type: cell-based; conditions: Pseudomonas aeruginosa, ATCC27853
Summary of the method: as §1

[4] = test system: E. spp. cloacae ATCC 13047; assay: Microbroth dilution MIC (CLSI); assay type: cell-based; conditions: Enterobacter cloacae, ATCC13047; E. spp. cloacae ATCC 13047; read-out: MIC
Summary of the method: as §1

[5] = molecular target: T1, S. aureus topoisomerase IV (Staphylococcus aureus, UniProt P0C1S7); assay: Topoisomerase IV inhibition assay (Inspiralis, streptavidin-coated plates); assay type: biochemical; conditions: S. aureus topo IV; for remaining activity at 10 µM: 10 μM compound; for IC50: read-out: IC50
T1 construct: purchased Inspiralis
T1 sequence (P0C1U9 whole entry): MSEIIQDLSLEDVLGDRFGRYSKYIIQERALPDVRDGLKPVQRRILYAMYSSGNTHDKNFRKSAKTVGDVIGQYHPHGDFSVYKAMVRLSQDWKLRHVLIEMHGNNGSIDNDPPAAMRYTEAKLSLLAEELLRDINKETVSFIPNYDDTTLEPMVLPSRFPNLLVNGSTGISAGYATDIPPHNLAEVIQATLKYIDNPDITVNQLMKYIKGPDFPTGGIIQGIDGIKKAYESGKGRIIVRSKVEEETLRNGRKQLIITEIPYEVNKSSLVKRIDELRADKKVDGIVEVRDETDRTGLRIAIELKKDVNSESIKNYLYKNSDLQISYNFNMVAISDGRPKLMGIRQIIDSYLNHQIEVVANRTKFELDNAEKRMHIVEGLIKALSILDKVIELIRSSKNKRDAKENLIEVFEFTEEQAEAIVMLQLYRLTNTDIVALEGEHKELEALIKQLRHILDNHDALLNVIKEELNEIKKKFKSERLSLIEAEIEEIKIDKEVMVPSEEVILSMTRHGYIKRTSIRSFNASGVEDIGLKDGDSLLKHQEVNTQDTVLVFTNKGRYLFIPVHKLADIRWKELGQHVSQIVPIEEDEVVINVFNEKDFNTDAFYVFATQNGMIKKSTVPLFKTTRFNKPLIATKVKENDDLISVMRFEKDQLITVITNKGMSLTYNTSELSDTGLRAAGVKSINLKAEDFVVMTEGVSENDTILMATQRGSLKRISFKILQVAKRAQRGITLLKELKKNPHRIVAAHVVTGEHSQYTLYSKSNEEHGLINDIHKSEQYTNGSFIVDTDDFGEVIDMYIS
T1 sequence (P0C1S7 whole entry): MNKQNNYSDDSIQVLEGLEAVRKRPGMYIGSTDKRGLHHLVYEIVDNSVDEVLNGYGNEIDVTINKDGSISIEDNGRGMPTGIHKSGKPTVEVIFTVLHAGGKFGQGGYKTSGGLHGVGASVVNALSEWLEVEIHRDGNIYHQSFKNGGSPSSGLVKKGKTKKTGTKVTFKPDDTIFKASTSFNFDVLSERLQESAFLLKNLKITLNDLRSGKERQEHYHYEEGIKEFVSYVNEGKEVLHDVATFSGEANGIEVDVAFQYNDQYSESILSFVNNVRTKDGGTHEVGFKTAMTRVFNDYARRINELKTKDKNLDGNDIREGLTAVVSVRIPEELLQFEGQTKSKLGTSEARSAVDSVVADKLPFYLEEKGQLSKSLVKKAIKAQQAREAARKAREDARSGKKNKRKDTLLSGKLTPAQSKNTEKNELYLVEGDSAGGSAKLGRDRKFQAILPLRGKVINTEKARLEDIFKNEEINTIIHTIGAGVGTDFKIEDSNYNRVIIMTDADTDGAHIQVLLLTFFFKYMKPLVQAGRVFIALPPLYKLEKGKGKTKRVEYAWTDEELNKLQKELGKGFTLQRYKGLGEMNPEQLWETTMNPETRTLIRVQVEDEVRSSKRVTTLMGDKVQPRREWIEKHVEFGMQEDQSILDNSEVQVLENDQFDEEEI
Protocol: Inhibitory activities for compounds of the present invention were determined on E. coli and S. aureus DNA gyrase and topoisomerase IV in an assay from Inspiralis on streptavidin-coated 96-well microtiter plates from Thermo scientific Pierce. […] After washing off the unbound oligonucleotide, the enzyme test was performed. […] Reaction solutions were incubated at 37° C. for 30 min. After that, the TF buffer (50 mM NaOAc with pH 5.0, 50 mM NaCl and 50 mM MgCl2) was added to terminate the enzymatic reaction. After additional incubation for 30 min at rt, during which biotin-oligonucleotide-plasmid triplex was formed, the unbound plasmid was washed off using TF buffer and SybrGOLD in T10 buffer (10 mM Tris HCl with pH 8.0 and 1 mM EDTA) was added. […] Initial screening was done at 100 or 10 nM concentration of inhibitors against E. coli DNA gyrase or 1 μM or 100 nM concentration against S. aureus DNA gyrase and E. coli and S. aureus topo IV. […] GraphPad Prism 6.0 software was used to calculate the IC50 values. The result is given as the average value of three independent measurements. […] Chemoth.

E. coli DNA gyrase = molecular target: T2, E. coli DNA gyrase (Escherichia coli, UniProt P0AES6); assay: biochemical; conditions: for IC50: read-out: IC50
T2 construct: purchased Inspiralis
Summary of the method: (§2)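 Triplex-capture format: plasmid bound to a biotinylated oligonucleotide on streptavidin plates after reaction at 37 °C for 30 min. The reaction was stopped with TF buffer (50 mM NaOAc pH 5.0, 50 mM NaCl, 50 mM MgCl2), and captured DNA was stained with SybrGOLD. IC50 values are the mean of three independent measurements.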

[6] = test system: E. aerogenes (ATCC 13408); assay: Microbroth dilution MIC (CLSI); assay type: cell-based, Enterobacter aerogenes; conditions: Klebsiella aerogenes, ATCC13408
Protocol: The chemical entities described in the present invention were assessed for their antimicrobial activity using a microbroth dilution assay as recommended by the CLSI (Methods for Dilution Antimicrobial Susceptibility Tests for Bacteria That Grow Aerobically, and Methods for Antimicrobial Susceptibility Testing of Anaerobic Bacteria, Clinical and Laboratory Standards Institute, Document M07-A8, and M11-A8, Wayne, PA 19087, USA, 2012.). Compounds were dissolved by using 100% DMSO. Serial two-fold dilutions of each compound were made by using 100% DMSO as the diluent.
A library of Gram-negative and Gram-positive microbes and their drug- and multidrug-resistant variants were employed as test organisms. The MIC (minimum inhibitory concentration) was determined as the lowest concentration of an individual drug that lead to no visible growth.

E. coli topoisomerase IV = molecular target: T3, E. coli topoisomerase IV (Escherichia coli, UniProt P20083); assay: biochemical; conditions: for remaining activity at 10 µM: 10 μM compound, read-out: RA (residual activity of the enzyme); for IC50: read-out: IC50
T3 construct: purchased Inspiralis
T3 sequence (P0AFI2 whole entry): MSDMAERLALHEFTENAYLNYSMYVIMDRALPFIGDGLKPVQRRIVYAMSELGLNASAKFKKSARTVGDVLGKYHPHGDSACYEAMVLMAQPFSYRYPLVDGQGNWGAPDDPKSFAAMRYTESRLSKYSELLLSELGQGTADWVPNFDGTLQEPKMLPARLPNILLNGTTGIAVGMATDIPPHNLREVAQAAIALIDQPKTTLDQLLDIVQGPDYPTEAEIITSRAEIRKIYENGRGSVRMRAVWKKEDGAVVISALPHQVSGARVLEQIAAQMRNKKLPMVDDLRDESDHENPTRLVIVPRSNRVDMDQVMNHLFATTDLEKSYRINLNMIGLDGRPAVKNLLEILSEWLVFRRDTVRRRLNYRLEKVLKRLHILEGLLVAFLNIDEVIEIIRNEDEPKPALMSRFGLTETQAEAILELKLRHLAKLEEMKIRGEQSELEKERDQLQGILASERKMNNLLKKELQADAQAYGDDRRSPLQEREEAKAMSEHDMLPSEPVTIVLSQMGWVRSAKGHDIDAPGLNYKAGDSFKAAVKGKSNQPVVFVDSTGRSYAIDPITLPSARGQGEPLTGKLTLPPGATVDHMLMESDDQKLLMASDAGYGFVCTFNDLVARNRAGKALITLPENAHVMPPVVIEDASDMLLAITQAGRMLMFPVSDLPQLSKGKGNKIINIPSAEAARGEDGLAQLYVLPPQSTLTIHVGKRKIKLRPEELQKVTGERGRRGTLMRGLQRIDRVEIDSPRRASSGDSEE
T3 sequence (P20083 whole entry): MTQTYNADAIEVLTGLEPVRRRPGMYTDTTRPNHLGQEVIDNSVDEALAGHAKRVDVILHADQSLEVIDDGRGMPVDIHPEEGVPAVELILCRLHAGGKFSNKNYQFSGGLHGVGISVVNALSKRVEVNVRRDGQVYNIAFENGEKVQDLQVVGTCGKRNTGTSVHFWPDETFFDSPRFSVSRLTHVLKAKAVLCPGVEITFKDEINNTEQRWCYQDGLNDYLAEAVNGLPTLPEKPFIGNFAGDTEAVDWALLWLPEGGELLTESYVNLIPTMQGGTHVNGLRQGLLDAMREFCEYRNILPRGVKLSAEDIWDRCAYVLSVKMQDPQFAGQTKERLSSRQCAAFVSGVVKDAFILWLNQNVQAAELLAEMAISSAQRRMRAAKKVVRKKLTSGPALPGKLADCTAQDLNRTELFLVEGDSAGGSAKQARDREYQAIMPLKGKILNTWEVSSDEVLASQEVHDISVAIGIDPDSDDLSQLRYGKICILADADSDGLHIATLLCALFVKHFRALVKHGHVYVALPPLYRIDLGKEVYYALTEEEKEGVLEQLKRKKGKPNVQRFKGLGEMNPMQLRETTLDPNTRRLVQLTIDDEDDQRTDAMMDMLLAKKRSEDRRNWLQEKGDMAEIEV
Summary of the method: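 Supercoiling/relaxation read via biotin-oligonucleotide triplex capture on streptavidin plates; reactions 30 min at 37° C, stopped with TF buffer pH 5.0, plasmid stained with SybrGOLD.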

E. faecalis ATCC 29212 = assay: Microbroth dilution MIC (CLSI); assay type: cell-based; conditions: Enterococcus faecalis, ATCC29212; E. faecalis ATCC 29212; read-out: MIC
Summary of the method: as §1

S. aureus DNA gyrase = molecular target: T4, S. aureus DNA gyrase (Staphylococcus aureus, UniProt P0A0K8); assay: biochemical; conditions: for remaining activity at 1 µM: 1 μM compound; for IC50: read-out: IC50
T4 construct: purchased Inspiralis
T4 sequence (P20831 whole entry): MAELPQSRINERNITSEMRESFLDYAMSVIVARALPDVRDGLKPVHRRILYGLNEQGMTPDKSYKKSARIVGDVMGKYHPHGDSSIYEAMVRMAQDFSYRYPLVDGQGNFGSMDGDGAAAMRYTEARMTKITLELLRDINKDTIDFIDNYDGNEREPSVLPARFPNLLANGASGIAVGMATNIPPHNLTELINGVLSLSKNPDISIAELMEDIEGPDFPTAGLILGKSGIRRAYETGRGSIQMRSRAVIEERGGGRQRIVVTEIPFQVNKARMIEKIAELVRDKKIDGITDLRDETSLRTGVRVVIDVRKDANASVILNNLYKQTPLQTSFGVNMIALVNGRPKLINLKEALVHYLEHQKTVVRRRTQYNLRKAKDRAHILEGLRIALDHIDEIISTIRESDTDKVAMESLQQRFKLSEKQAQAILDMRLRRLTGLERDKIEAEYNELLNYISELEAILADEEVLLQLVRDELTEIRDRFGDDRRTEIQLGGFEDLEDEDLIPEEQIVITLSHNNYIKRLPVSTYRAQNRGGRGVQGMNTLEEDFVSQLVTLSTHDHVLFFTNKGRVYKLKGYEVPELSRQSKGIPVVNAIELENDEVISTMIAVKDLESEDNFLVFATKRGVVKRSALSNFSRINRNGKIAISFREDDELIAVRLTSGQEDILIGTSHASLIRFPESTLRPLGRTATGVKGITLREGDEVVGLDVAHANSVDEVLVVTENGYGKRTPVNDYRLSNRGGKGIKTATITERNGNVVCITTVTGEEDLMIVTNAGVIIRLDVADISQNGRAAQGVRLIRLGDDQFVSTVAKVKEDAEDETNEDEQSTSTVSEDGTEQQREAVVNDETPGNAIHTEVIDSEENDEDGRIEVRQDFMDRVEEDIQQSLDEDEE
T4 sequence (P0A0K8 whole entry): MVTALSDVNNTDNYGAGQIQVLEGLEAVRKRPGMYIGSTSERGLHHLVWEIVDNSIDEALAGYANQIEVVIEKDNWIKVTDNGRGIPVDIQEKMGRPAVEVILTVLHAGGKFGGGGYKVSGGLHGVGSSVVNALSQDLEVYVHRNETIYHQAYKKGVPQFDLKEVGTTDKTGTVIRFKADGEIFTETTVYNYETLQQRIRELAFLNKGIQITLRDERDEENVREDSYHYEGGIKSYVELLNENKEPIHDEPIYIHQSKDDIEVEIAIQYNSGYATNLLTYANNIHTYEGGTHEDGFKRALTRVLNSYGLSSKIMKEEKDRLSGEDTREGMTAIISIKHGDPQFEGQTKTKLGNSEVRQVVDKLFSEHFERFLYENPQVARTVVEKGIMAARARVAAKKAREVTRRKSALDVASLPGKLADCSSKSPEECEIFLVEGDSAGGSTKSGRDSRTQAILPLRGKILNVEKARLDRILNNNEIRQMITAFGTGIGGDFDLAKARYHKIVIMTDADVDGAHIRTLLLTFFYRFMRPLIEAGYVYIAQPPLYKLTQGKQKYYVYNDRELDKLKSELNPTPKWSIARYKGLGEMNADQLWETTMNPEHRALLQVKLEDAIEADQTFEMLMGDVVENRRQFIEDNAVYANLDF
Summary of the method: as §2

[7] = molecular target: DNA gyrase from Mycobacterium tuberculosis (Mycobacterium tuberculosis, UniProt P9WG45); assay: Gel-based supercoiling assay; assay type: biochemical; conditions: M. tuberculosis DNA gyrase
Excerpt: Example compound 18 was additionally evaluated against DNA gyrase from Mycobacterium tuberculosis using a gel-based supercoiling assay.

[8] = A. baumannii (ATCC 19606), read-out: MIC
[9] = S. aureus ATCC 29213, read-out: MIC
[10] = E. coli ATCC 25922, read-out: MIC
[11] = E. faecium (ATCC 35667), read-out: MIC
[12] = K. pneumoniae (ATCC 700603), read-out: MIC
[13] = P. aeruginosa ATCC 27853, read-out: MIC
[14] = E. aerogenes (ATCC 13408), read-out: MIC
[15] = read-out: RA (residual activity of the enzyme)
[16] = S. aureus DNA gyrase, read-out: RA (residual activity of the enzyme)

| SMILES | MIC [1, 8] [µg/mL] | MIC (S. aureus ATCC 29213; [9]) [µg/mL] | MIC (E. coli ATCC 25922; [10]) [µg/mL] | MIC (E. faecium (ATCC 35667); [11]) [µg/mL] | MIC [3, 12] [µg/mL] | MIC (P. aeruginosa ATCC 27853; [13]) [µg/mL] | IC50 (E. coli DNA gyrase; E. coli DNA gyrase) [nM] | MIC [6, 14] [µg/mL] | remaining activity at 10 µM [5, 15] [%] | remaining activity at 10 µM (E. coli topoisomerase IV; E. coli topo IV) [%] | IC50 [5] [nM] | also measured |
| --- | --- | --- | --- | --- | --- | --- | --- | --- | --- | --- | --- | --- |
| Cc1[nH]c(C(=O)Nc2ccc(-c3nnn[nH]3)cc2N2CCOCC2)c(Cl)c1Cl [Example 10, 3,4-Dichloro-5-methyl-N-(2-morpholino-4-(2H-tetrazol-5-yl)phenyl)-1H-pyrrole-2-carboxamide] | ≥ 64 | ≥ 64 | ≥ 64 | 10 (≈ 23.7 µM) | ≥ 64 | ≥ 64 | 44.5 | ≥ 64 |  |  |  | MIC (A. baumannii ATCC 17978): ≥ 64 µg/mL; MIC [2]: ≥ 64 µg/mL; MIC (E. faecium ATCC 700221): ≥ 64 µg/mL; MIC (K. pneumoniae ATCC 10031): ≥ 64 µg/mL; MIC [4]: ≥ 64 µg/mL; remaining activity at 0.1 µM ([5]; 0.1 μM compound, read-out: RA (residual activity of the enzyme)): 101%; remaining activity at 1 µM ([5]; 1 μM compound, read-out: RA (residual activity of the enzyme)): 7% |
| Cc1[nH]c(C(=O)Nc2ccc(C(=O)O)cc2N2CCNCC2)c(Cl)c1Cl [Example 12, 4-(5-Carboxy-2-(3,4-dichloro-5-methyl-1H-pyrrole-2-carboxamido)phenyl)piperazin-1-ium chloride] |  | ≥ 64 | ≥ 64 |  |  | ≥ 64 |  |  | -17 | -18 |  | MIC [1]: ≥ 64 µg/mL; MIC (E. faecium (ATCC 35667)): ≥ 64 µg/mL; MIC [3]: ≥ 64 µg/mL; remaining activity at 1 µM (E. coli DNA gyrase; E. coli DNA gyrase, 1 μM compound, read-out: RA (residual activity of the enzyme)): 67%; MIC [6]: ≥ 64 µg/mL |
| Cc1[nH]c(C(=O)Nc2ccc(-c3n[nH]c(=O)o3)cc2N2CCC[C@H](N)C2)c(Cl)c1Cl.Cl [Example 18, (S)-1-(2-(3,4-Dichloro-5-methyl-1H-pyrrole-2-carboxamido)-5-(5-oxo-4,5-dihydro-1,3,4-oxadiazol-2-yl)phenyl)piperidin-3-aminium chloride] |  | 2 | 16 |  |  | 64 | 27.2 |  |  |  | 406 | MIC (A. baumannii ATCC 17978): 16 µg/mL; MIC [2]: 4 µg/mL; MIC (E. faecalis ATCC 29212): 2 µg/mL; MIC (K. pneumoniae ATCC 10031): 0.25 µg/mL; MIC [4]: > 64 µg/mL; remaining activity at 0.1 µM (S. aureus DNA gyrase; S. aureus DNA gyrase, 0.1 μM compound, read-out: RA (residual activity of the enzyme)): 41%; remaining activity at 1 µM (S. aureus DNA gyrase; [16]): 11%; IC50 [7]: 26.5 ± 2.1 nM |
| Cc1[nH]c(C(=O)Nc2ccc(C(=O)NCC(=O)O)cc2N2CC[C@@H](N)C2)c(Cl)c1Cl [Example 34, (R)-1-(5-((Carboxymethyl)carbamoyl)-2-(3,4-dichloro-5-methyl-1H-pyrrole-2-carboxamido)phenyl)pyrrolidin-3-aminium chloride] |  |  |  |  |  |  |  |  |  |  | 2030 | MIC [1]: ≥ 64 µg/mL; MIC (S. aureus ATCC 29213): ≥ 64 µg/mL; MIC (E. coli ATCC 25922): ≥ 64 µg/mL; MIC (E. faecium (ATCC 35667)): ≥ 64 µg/mL; MIC [3]: ≥ 64 µg/mL; MIC (P. aeruginosa ATCC 27853): ≥ 64 µg/mL; IC50 (S. aureus DNA gyrase): 1240 nM; IC50 (E. coli DNA gyrase): 21.3 nM; MIC [6]: ≥ 64 µg/mL; IC50 (E. coli topoisomerase IV): 2370 nM |
| Cc1[nH]c(C(=O)Nc2ccc(C(=O)NCC(=O)O)cc2N2CCNCC2)c(Cl)c1Cl.Cl [Example 36, 4-(5-((Carboxymethyl)carbamoyl)-2-(3,4-dichloro-5-methyl-1H-pyrrole-2-carboxamido)phenyl)piperazin-1-ium chloride] | ≥ 64 | ≥ 64 | ≥ 64 | ≥ 64 | ≥ 64 | ≥ 64 | 40.3 | ≥ 64 |  | -43 | 4190 | IC50 (S. aureus DNA gyrase; S. aureus DNA gyrase): 621 nM |
| Cl.N[C@H]1CCN(c2cc(C(=O)NCC(=O)O)ccc2NC(=O)c2cc(Br)c(Br)[nH]2)C1 [Example 38, (S)-1-(5-((Carboxymethyl)carbamoyl)-2-(4,5-dibromo-1H-pyrrole-2-carboxamido)phenyl)pyrrolidin-3-aminium chloride] | ≥ 64 | ≥ 64 | ≥ 64 | ≥ 64 | ≥ 64 | ≥ 64 | 35.7 | ≥ 64 | 91 | 84 |  | remaining activity at 10 µM (S. aureus DNA gyrase; S. aureus DNA gyrase, 10 μM compound, read-out: RA (residual activity of the enzyme)): 46% |
| Cl.O=C(O)CNC(=O)c1ccc(NC(=O)c2cc(Br)c(Br)[nH]2)c(N2CCNCC2)c1 [Example 39, 4-(5-((Carboxymethyl)carbamoyl)-2-(4,5-dibromo-1H-pyrrole-2-carboxamido)phenyl)piperazin-1-ium chloride] | ≥ 64 | ≥ 64 | ≥ 64 | ≥ 64 | ≥ 64 | ≥ 64 | 841 | ≥ 64 | 73 | 97 |  |  |
| Cc1[nH]c(C(=O)Nc2ccc(C(=O)NCc3n[nH]c(=O)o3)cc2N2CCNCC2)c(Cl)c1Cl.Cl [Example 40, 4-(2-(3,4-Dichloro-5-methyl-1H-pyrrole-2-carboxamido)-5-(((5-oxo-4,5-dihydro-1,3,4-oxadiazol-2-yl)methyl)carbamoyl)phenyl)piperazin-1-ium chloride] | ≥ 64 | ≥ 64 | ≥ 64 | ≥ 64 | ≥ 64 | ≥ 64 | 22.4 | ≥ 64 |  |  | 2700 | remaining activity at 1 µM (S. aureus DNA gyrase; [16]): 37%; IC50 (E. coli topoisomerase IV; E. coli topo IV): 2970 nM |
